Tested on: detergent-resistant membrane microdomains
Assay: Flow cytometry assay of αGalCer-mCD1d complex association with detergent-resistant membrane microdomains (JAWS II cells)
Assay type: cell-based, mouse
Conditions: 0.1% Triton X-100
Description: The scale bar represents 10 μm. Results shown for individual cells were typical of >20 cells analyzed for each parameter with or without incubation with the indicated glycolipids. (B) Quantitation of colocalization shown in (A) for multiple randomly selected individual cells. Pearson correlation coefficient for the distribution of pixel densities for K253 or L363 fluorescence compared to cholera toxin B-specific fluorescence are plotted for each individual cell analyzed. Values for p were determined by one-way ANOVA. (C) Flow cytometry assay for αGalCer-mCD1d complex association with detergent-resistant membrane microdomains. […] Baseline fluorescence levels were recorded for 15 s, after which Triton X-100 was added to 0.1% (arrow) and recording was resumed for another ∼60 s. Each symbol indicates mean fluorescence intensity (MFI) averaged over 1 s of recording. […]
Another property of lipid rafts is their resistance to solubilization by nonionic detergents due to their enrichment in cholesterol, sphingomyelin, and saturated acyl chains ([Pike, 2008]). To assess the localization of αGalCer-mCD1d complexes in detergent insoluble microdomains, we used a flow-cytometry-based assay that quantitates the resistance of lipid-raft-associated transmembrane proteins to extraction by low concentrations of Triton X-100 ([Gombos et al., 2004a; Peng et al., 2007]). […]

Row | Compound | extraction of mCD1d complexes (L363 staining) by detergent, in words
1 | CCCCCCCCCCCCCCC(O)C(O)C(COC1OC(CO)C(O)C(O)C1O)NC(=O)CCCCCCCCC (centres unmarked) [αGalCer-C10:0] | mainly localized to detergent soluble nonraft domains
2 | CCCCCC=CCC=CCCCCCCCCCC(=O)NC(COC1OC(CO)C(O)C(O)C1O)C(O)C(O)CCCCCCCCCCCCCC (centres unmarked) [αGalCer-C20:2] | significant extraction by detergent
